The values below come from ChEMBL document CHEMBL1201862, “PubChem BioAssay data set” (2004).

Calls of active or inactive are those of the source. Rule as the data show it, for most assays here: actives have a measured EC50 and inactives only a lower limit.

Assay [1] deals with T1, Sphingosine 1-phosphate receptor 1 (Homo sapiens, UniProt P21453). As to the kind of experiment: Fluorescence-based counterscreen assay for S1P4 agonists: Cell-based dose response high throughput screening assay to identify agonists of the Sphingosine 1-Phosphate Receptor 1 (S1P1). [Related pubchem assays (depositor defined):AID1509, AID1523, AID1801, AID463107, AID463118, AID463119, AID463122, AID463123, AID463129, AID463225, AID504400, AID504460]. The assay is classed as functional.
T1 sequence (P21453 whole entry): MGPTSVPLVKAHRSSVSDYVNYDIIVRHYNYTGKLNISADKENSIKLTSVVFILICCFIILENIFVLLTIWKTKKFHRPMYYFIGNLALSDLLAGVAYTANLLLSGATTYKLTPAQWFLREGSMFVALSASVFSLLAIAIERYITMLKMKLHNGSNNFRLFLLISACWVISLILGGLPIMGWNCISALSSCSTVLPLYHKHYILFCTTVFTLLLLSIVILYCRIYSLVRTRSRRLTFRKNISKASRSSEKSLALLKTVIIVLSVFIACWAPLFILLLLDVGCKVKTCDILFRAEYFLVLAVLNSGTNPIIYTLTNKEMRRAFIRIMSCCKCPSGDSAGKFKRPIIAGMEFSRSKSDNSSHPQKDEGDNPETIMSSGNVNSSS

Assay [2] can be described thus: Trypanosoma cruzi growth suppression in host cells – NIH3T3 host cells, beta-gal luminescence, confirmation (AID 2044).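 Also: intracellular parasites grown in NIH/3T3 mouse fibroblasts as host cells; luminescent beta-galactosidase reporter signal from transgenic T. cruzi replicating inside host cells; inhibitors lower the luminescence signal.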 The assay is classed as functional, cell-based.
Assay [3] addresses T2, Sphingosine 1-phosphate receptor 4 (Homo sapiens, UniProt O95977).
T2 sequence (O95977 whole entry): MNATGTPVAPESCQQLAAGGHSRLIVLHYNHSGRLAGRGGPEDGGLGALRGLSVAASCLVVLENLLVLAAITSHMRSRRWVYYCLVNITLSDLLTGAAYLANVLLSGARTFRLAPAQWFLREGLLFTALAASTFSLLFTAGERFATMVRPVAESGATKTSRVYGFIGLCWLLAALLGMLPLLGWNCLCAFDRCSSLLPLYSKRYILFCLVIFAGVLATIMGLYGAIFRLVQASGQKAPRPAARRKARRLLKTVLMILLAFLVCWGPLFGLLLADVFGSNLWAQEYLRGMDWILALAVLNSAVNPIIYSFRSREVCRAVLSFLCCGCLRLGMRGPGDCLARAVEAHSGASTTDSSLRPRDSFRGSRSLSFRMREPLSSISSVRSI
As to the kind of experiment: Fluorescence dose response cell-based high throughput screening assay for agonists of the Sphingosine 1-Phosphate Receptor 4 (S1P4). [Related pubchem assays: 1509 (Primary screen.), 1523 (Confirmation screen in triplicates.)]. The assay is classed as functional.

Assay [4] can be described thus: NIH3T3 cell viability loss – ATP luminescence, mouse fibroblasts, counter-screen, dose response (AID 2010).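 Also: cells exposed to compound for about 90 hours before reading.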 Format: functional, cell-based. (A counterscreen serves to expose hits that act by an unwanted route or on another target.)
Assay [5] deals with Intestinal-type alkaline phosphatase (Homo sapiens, UniProt P09923). The experiment in a line: activation of human intestinal alkaline phosphatase – biochemical, dose response (AID 488873). Format: functional.
Chain of Intestinal-type alkaline phosphatase (Homo sapiens, UniProt P09923) (P09923 whole entry): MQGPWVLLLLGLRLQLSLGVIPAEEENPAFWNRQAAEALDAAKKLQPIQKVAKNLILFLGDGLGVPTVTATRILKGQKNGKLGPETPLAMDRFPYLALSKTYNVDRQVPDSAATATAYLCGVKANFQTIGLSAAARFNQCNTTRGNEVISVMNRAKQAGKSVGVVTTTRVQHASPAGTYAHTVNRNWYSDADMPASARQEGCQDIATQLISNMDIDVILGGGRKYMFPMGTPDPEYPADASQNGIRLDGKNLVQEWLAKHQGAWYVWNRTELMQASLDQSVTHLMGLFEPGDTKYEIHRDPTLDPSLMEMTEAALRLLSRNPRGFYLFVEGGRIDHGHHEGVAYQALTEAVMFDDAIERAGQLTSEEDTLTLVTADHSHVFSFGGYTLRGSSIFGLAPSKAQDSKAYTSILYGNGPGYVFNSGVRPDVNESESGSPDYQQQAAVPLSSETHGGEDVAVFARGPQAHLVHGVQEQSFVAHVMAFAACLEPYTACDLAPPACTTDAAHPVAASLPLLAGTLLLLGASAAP
Assay [6] addresses Intestinal-type alkaline phosphatase (Mus musculus, UniProt P24822). As to the kind of experiment: mouse intestinal alkaline phosphatase activators, dose response, biochemical, luminescence, uHTS hits (AID 488783). The assay is classed as functional.
The target of assay [7] is T3, Alkaline phosphatase, tissue-nonspecific isozyme (Homo sapiens, UniProt P05186).
T3 sequence (P05186 whole entry): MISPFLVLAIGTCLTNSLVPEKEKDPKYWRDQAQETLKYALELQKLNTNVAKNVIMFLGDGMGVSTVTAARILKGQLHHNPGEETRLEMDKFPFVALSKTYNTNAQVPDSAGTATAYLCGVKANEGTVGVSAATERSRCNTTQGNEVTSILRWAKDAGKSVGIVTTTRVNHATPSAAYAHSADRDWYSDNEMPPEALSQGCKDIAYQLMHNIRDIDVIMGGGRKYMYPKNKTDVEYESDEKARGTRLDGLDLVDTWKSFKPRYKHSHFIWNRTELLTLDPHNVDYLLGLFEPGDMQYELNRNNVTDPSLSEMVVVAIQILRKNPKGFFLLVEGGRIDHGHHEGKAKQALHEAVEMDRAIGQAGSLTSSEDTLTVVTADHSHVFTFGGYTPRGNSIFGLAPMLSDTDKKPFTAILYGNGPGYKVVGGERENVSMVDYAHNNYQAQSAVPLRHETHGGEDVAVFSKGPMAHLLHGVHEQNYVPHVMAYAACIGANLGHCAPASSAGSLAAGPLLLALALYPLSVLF
The experiment in a line: activation of tissue-nonspecific alkaline phosphatase – biochemical, TNAP isozyme, mouse IAP uHTS hits, selectivity assay for mouse IAP activator project, dose response (AID 488880). The assay is classed as functional.

Assay [8] in a line: luciferase reporter signal suppression in cells – H4 neuroglioma cells, luminescence, dose response (AID 1990). The assay is classed as functional, cell-based. For orientation: In a reporter assay the amount or activity of a reporter protein is the signal.
Assay [9] is described as follows: luciferase reporter signal reduction – luminescence, H4-C neuroglioblastoma cells, dose response (AID 2458).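 Also: H4 neuroglioblastoma cells stably carrying a luciferase reporter gene fusion.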 The assay is classed as functional, cell-based.
In assay [10] the test system is Streptococcus sp. 'group A'. As to the kind of experiment: Streptococcus pyogenes SK(-)GAS viability under kanamycin – luminescence, BacTiterGlo, confirmation, counter-screen for streptokinase expression inhibitor project, dose response (AID 1900). Format: functional, organism-based.
A short description of another assay: cells. The assay is classed as functional, cell-based.
Assay [11] in a line: Luminescence Cell-Based Dose Response HTS to Identify Inhibitors of 5'UTR Stem-Loop Driven Prion Protein mRNA Translation in H4 Neuroglioblastoma Cells. [Related pubchem assays: 1827 (Project Summary), 1813 (Primary HTS)]. The assay is classed as functional.
Assay [12] addresses T4, Heat shock factor protein 1 (Mus musculus, UniProt P38532).
T4 sequence (P38532 whole entry): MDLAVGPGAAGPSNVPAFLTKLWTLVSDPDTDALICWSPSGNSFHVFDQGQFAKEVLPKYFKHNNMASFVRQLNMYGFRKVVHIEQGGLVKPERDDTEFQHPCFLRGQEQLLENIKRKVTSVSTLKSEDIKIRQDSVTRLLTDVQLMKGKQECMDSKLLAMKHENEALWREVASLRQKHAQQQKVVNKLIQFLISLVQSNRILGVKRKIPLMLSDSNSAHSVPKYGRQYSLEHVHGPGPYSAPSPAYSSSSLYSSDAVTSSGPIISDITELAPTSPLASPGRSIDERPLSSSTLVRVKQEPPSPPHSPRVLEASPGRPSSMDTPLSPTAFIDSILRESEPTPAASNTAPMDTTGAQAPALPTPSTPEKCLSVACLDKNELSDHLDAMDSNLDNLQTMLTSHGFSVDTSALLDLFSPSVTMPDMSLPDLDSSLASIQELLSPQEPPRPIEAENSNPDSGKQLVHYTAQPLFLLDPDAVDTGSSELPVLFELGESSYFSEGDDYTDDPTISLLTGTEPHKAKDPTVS
The experiment in a line: decrease of HSF1-responsive luciferase luminescence – cell-based, NIH3T3, dose retest, confirmation (AID 2382).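 Also: NIH3T3 fibroblasts with HSF1-driven luciferase reporter stressed by proteasome inhibitor MG132; luminescence from HSF1-driven luciferase expression after 8 hours of MG132 stress.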 The assay is classed as functional.

Assay [13] in a line: alpha-synuclein stem-loop luciferase translation blockers – H4 neuroglioma cells, luminescence, confirmation (AID 1988). The assay is classed as functional, cell-based.
Assay [14] in a line: microbe, parasite or virus in culture. Format: functional. Particulars: Mycobacterium tuberculosis.
The nature of assay [15]: Luminescence-based dose response cell-based high throughput screening assay for cytotoxic compounds using the IEC-6 intestinal epithelial cell line. [Related pubchem assays: 1858 (Summary AID.), 1825 (Counterscreen.), 1907 (Confirmation screen.)]. Format: functional.
In assay [16] the target is T2, Sphingosine 1-phosphate receptor 4. As to the kind of experiment: Fluorescence dose response cell-based high throughput screening assay for antagonists of the Sphingosine 1-Phosphate Receptor 4 (S1P4). [Related pubchem assays: 1524 (Confirmation in triplicates.), 1510 (Primary screen.)]. Format: functional.
In assay [17] the target is T1, Sphingosine 1-phosphate receptor 1. Format: functional.
A further assay deals with Streptococcus. The experiment in a line: GAS UMAA2166 growth inhibition – luminescence, BacTiterGlo, counter-screen for streptokinase expression inhibitor project, dose response (AID 1915).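 Also: potency for reduction of bacterial viability or growth.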 Format: functional, organism-based.
Assay [18] in a line: alpha-synuclein stem-loop translation blockers – luminescence, H4 neuroglioblastoma cells, dose confirmation, confirmation (AID 2454).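 Also: H4 neuroglioblastoma cells carrying an alpha-synuclein 5'UTR luciferase reporter; potency for inhibition of the luciferase signal.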 Format: functional, cell-based.
Assay [19] addresses T5, Protein RecA (Mycobacterium tuberculosis, UniProt P9WHJ3).
T5 sequence (P9WHJ3 whole entry): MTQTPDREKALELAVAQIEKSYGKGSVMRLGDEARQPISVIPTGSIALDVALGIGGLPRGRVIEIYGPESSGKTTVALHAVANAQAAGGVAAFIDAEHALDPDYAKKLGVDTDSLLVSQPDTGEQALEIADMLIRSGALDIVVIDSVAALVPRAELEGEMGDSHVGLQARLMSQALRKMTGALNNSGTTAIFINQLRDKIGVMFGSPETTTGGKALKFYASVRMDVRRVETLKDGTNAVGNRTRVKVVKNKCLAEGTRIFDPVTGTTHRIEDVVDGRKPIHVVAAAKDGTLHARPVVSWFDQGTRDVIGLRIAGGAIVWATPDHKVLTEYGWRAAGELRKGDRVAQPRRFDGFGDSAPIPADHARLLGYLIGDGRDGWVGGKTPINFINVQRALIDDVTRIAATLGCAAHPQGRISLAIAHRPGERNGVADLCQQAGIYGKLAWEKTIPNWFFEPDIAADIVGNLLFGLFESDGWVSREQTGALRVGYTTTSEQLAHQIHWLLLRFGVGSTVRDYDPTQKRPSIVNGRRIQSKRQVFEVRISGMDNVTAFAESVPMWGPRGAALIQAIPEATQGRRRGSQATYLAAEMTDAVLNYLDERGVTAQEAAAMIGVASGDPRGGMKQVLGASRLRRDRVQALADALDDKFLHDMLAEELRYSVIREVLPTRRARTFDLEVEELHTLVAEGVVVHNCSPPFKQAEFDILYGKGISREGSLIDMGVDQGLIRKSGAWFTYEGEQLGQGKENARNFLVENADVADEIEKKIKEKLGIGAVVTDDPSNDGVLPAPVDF
As to the kind of experiment: GFP-RecA MOA-DTT Measured in Biochemical System Using Plate Reader - 2047-05_Inhibitor_Dose_DryPowder_Activity. [Related pubchem assays (depositor defined):AID2223]. Details: species or system Mycobacterium tuberculosis H37Rv.

Assay [20] is described as follows: HEK-293T viability loss after treatment – luminescence, T-cell screen hits, cytotoxicity control for TCR NF-kB inhibitor project, dose response (AID 489026).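 Also: cells exposed to compound about 14 hours before the viability readout.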 The assay is classed as functional, cell-based.
A short description of assay [21]: Intein inhibitors as potential Tuberculosis drugs, a cytotoxicity screen. [Related pubchem assays (depositor defined):AID2221, AID2223, AID434968, AID435010, AID449749, AID449750, AID489010]. The assay is classed as functional.
Assay [22] has as its target T6, Replicative DNA helicase DnaB (Mycobacterium tuberculosis, UniProt P9WMR3).
T6 sequence (P9WMR3 whole entry): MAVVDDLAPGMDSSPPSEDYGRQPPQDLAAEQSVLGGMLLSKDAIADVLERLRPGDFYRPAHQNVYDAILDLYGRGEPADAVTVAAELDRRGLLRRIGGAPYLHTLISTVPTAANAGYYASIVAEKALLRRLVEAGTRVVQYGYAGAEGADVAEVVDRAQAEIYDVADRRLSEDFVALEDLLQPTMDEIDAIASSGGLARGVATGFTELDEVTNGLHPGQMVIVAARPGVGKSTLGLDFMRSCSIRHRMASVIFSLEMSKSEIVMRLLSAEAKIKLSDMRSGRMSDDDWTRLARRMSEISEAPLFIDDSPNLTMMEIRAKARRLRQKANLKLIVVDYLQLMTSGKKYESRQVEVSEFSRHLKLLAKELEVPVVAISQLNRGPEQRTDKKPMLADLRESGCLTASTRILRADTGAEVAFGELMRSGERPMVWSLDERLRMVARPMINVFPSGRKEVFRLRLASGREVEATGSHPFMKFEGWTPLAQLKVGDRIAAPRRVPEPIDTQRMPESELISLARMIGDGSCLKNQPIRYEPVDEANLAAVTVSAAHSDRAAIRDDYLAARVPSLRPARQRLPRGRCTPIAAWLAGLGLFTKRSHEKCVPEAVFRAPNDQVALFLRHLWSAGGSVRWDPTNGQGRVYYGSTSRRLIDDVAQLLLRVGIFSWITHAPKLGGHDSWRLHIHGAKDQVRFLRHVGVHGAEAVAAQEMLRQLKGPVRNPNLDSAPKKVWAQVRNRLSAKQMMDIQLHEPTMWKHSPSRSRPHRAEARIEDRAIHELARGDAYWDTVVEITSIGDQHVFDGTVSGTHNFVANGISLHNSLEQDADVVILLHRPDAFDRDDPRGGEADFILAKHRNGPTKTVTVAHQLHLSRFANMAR
The experiment in a line: DnaB Intein secondary assay Measured in Biochemical System Using Plate Reader - 2047-04_Inhibitor_Dose_DryPowder_Activity. [Related pubchem assays (depositor defined):AID2223].

Assay [23] concerns the target T6, Replicative DNA helicase DnaB. The experiment in a line: DnaB intein splicing inhibitors, dose response, biochemical, cell-free fluorescence (AID 449749). The assay is classed as functional.
Assay [24] has as its target T5, Protein RecA. As to the kind of experiment: Fluorescence Cell-Free Homogeneous Dose Retest to Identify Inhibitors of RecA-Intein Splicing Activity. [Related pubchem assays (depositor defined):AID2097, AID2223, AID489010, AID492950]. Format: functional.

Chain of Intestinal-type alkaline phosphatase (Mus musculus, UniProt P24822) (P24822 whole entry): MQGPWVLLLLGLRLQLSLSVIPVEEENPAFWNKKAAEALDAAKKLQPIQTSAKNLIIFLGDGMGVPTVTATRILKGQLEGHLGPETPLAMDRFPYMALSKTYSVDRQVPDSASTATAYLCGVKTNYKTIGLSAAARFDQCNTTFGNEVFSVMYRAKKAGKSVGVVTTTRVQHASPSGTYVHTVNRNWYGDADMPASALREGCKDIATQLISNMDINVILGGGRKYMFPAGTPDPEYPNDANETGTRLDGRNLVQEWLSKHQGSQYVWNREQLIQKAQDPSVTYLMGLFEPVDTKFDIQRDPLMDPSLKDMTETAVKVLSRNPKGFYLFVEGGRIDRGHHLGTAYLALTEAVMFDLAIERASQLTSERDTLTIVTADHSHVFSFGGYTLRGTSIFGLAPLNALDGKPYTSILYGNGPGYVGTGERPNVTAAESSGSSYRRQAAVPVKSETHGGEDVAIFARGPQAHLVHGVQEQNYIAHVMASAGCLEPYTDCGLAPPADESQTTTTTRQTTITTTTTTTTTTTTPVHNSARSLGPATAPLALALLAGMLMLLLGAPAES

Take `CC(=O)C1=C(C)NC(SCC(=O)c2ccc(Cl)cc2Cl)=C(C#N)C1c1ccco1` (stereo unspecified): the EC50 in assay [1] is > 49.8 µM (inactive); in [2], 0.437 µM (active); in assay [3], > 49.8 µM (not active); in [4] it was 15.7 µM (active).

Take `Cc1ccc(NC(=O)CCNS(=O)(=O)c2ccc3nc(O)oc3c2)c(Cl)c1`: the EC50 in assay [5] was 20.4 µM (active); in assay [6] it was 14.9 µM (active); in [7] it was 28.1 µM (active).

In the case of `Cc1oc2c(c1C(=O)NCc1cccnc1)C(=O)c1ccccc1C2=O`, the EC50 was < 0.1 µM (active) in [8]; 0.127 µM (active) in assay [9]; 1.31 µM (active) in [10]; 0.232 µM (active) in the assay “cells”; < 0.1 µM (active) in [11]; 0.304 µM (active) in assay [12]. Further, the EC50 is < 0.1 µM (active) in assay [13], 2.56 µM (active) in the assay on Streptococcus, 0.145 µM (active) in assay [18] and 0.0639 µM (active) at Protein RecA [24]. Also, the CC50 in assay [14] is 0.295 µM (active); in assay [21], 0.52 µM (active). The IC50 in [15] was 0.158 µM (active); in assay [16], 0.581 µM (active); in assay [17], 3.65 µM (active); in [20], 7.67 µM (active). The figures for the AC50 (on Protein RecA [19]; in assay [22]; in [23]) were 10.8 µM (active), 1.15 µM (active) and 0.438 µM (active), respectively.

By EC50 is commonly meant the concentration needed to bring the measured effect to its halfway point. One may read the IC50 as the concentration at which inhibition is half-maximal. By AC50 is commonly meant the concentration giving half of the maximal activity seen.
